Patent US20040097594A1 (priority 1998, published 2004)
pIC50, pKi: −log10 of the molar value. Like-named read-outs stand apart in the source and are kept apart here.

Columns and labels:
[1] = system: HIV-1 (strain IIIB); assay: microbe, parasite or virus in culture; type: cell-based; settings: lower line of each compound's entry, read-out: IC50 (MT-4 cells)
[2] = biological target: HIV-1 protease (Human immunodeficiency virus type 1 group M subtype B, UniProt P04585); assay: biochemical
[3] = Human immunodeficiency virus 1, 120 h, MT4 cells infected with HIV-1 strain IIIB, 5 days
[4] = HIV-1 protease, upper line of each compound's entry, read-out: Ki (enzyme)
[5] = Human immunodeficiency virus 1, IIIB, MT4, 120 h, […]

With `CC(C)(C)OC(=O)N[C@@H](Cc1ccccc1)[C@H](O)CN(OC1CCCC1)S(=O)(=O)c1cccc(N)c1` [Compound 11, tert-butyl N-(1S,2R)-3-[[(3-aminophenyl)sulfonyl](cyclopentyloxy)amino]-1-benzyl-2-hydroxypropylcarbamate] the pIC50 [1, 3] was under 6.00 and the pKi [2, 4] was 8.00 to 9.00.

`CC(C)ON(C[C@@H](O)[C@H](Cc1ccccc1)NC(=O)OC(C)(C)C)S(=O)(=O)c1ccc2[nH]c(=O)[nH]c2c1` [Compound 4] showed a pIC50 [1, 3] of under 6.00 and a pKi [2, 4] of 7.00 to 8.00.

`CCC(C)ON(C[C@@H](O)[C@H](Cc1ccccc1)NC(=O)[C@H](CC(N)=O)NC(=O)c1ccc2ccccc2n1)S(=O)(=O)c1ccc(OC)cc1` (some centres unmarked) [Compound 71] was tested, and the pIC50 [1, 5] was at least 7.00 and the pKi [2, 4] was over 9.00.

Compound `CC(=O)Nc1nc2ccc(S(=O)(=O)N(C[C@@H](O)[C@H](Cc3ccccc3)NC(=O)OC3COCOC3)OC3CCCC3)cc2s1` [Compound 114] has a pIC50 [1, 3] of at least 7.00 and a pKi [2, 4] of over 9.00.

`O=C(N[C@@H](Cc1ccccc1)[C@H](O)CN(OC1CCOCC1)S(=O)(=O)c1ccc(O)cc1)O[C@H]1CO[C@H]2OCC[C@H]21` [Compound 149, (3R,3aS,6aR)hexahydrofuro[2,3-b]furan-3-yl 1-benzyl-2-hydroxy-3-[[(4-hydroxyphenyl)sulfonyl](tetrahydro-2H-pyran-4-yloxy)amino]propylcarbamate] showed a pIC50 [1, 3] of at least 7.00 and a pKi [2, 4] of over 9.00.

Compound `CC(C)(C)ON(C[C@@H](O)[C@H](Cc1ccccc1)NC(=O)O[C@H]1CCOC1)S(=O)(=O)c1ccccc1` [Compound 111, (3S) Tetrahydro-3-furanyl-N-(1S,2R)-1-benzyl-3-(tertbutyloxy)[(phenyl)sulfonyl]amino-2-hydroxypropylcarbamate] has a pIC50 [1, 3] of under 6.00 and a pKi [2, 4] of 8.00 to 9.00.

`Nc1ccc(S(=O)(=O)N(CC(O)C(Cc2ccccc2)NC(=O)OC2COC3OCCC23)OC2CCCC2)cc1` [Example 171, (3R,3aS,6aR)hexahydrofuro[2,3-b]furan-3-yl N-(1S,2R)-3-[[(4-aminophenyl)sulfonyl](cyclopentyloxy)amino]-1-benzyl-2-hydroxypropyl carbamate] gave a pIC50 [1, 3] of at least 7.00 and a pKi [2, 4] of over 9.00.

Work on `COc1ccc(S(=O)(=O)N(C[C@@H](O)[C@H](Cc2ccccc2)NC(=O)[C@H](CC(N)=O)NC(=O)c2ccc3ccccc3n2)OC2CCCCC2)cc1` [Compound 66] yielded a pIC50 [1, 5] of at least 7.00 and a pKi [2] of over 9.00.

Work on `COC(=O)Nc1nc2cc(S(=O)(=O)N(C[C@@H](O)[C@H](Cc3ccccc3)NC(=O)O[C@H]3CCOC3)OC3CCCC3)ccc2[nH]1` [Compound 53, (3S)Tetrahydro-3-furanyl N-(1S,2R)-1-benzyl-3-[(cyclopentyloxy)(2-[(methoxycarbonyl)amino]-1H-benzimidazol-5-ylsulfonyl)amino]-2-hydroxypropylcarbamate] yielded a pIC50 [1, 3] of at least 7.00 and a pKi [2, 4] of over 9.00.

For `CCC(CC)ON(C[C@@H](O)[C@H](Cc1ccccc1)NC(=O)O[C@H]1CO[C@H]2OCC[C@H]21)S(=O)(=O)c1cccc(N)c1` [Example 164, (3R,3aS,6aR)hexahydrofuro[2,3-b]furan-3-yl(1S,2R)-3-[[(3-aminophenyl)sulfonyl](1-ethylpropoxy)amino]-1-benzyl-2-hydroxypropylcarbamate], the pIC50 [1, 3] was at least 7.00 and the pKi [2, 4] was over 9.00.

Work on `Nc1cccc(S(=O)(=O)N(C[C@@H](O)[C@H](Cc2ccccc2)NC(=O)O[C@H]2CO[C@H]3OCC[C@H]32)OC2CCOCC2)c1` [Compound 147, (3R,3aS,6aR)hexahydrofuro[2,3-b]furan-3-yl 3-[[(3-aminophenyl)sulfonyl](tetrahydro-2H-pyran-4-yloxy)amino]-1-benzyl-2-hydroxypropylcarbamate] yielded a pIC50 [1, 5] of at least 7.00 and a pKi [2, 4] of over 9.00.

With `O=C(N[C@@H](Cc1ccccc1)[C@H](O)CN(OC1CCCCC1)S(=O)(=O)c1ccc2c(c1)OCCO2)O[C@H]1CO[C@H]2OCC[C@H]21` [Compound 156, (3R,3aS,6aR)hexahydrofuro[2,3-b]furan-3-yl(1S,2R)-1-benzyl-3-[(cyclohexyloxy)(2,3-dihydro-1,4-benzodioxin-6-ylsulfonyl)amino]-2-hydroxypropylcarbamate] the pIC50 [1, 3] was at least 7.00 and the pKi [2, 4] was over 9.00.

In the case of `COc1ccc(S(=O)(=O)N(C[C@@H](O)[C@H](Cc2ccccc2)NC(=O)OC(C)(C)C)OCC2CCCCC2)cc1` [Compound 16, tert-butyl N-((1S,2R)-1-benzyl-3-(cyclohexylmethoxy)[(4-methoxyphenyl)sulfonyl]amino-2-hydroxypropyl)carbamate], the pIC50 [1, 3] was under 6.00 and the pKi [2, 4] was 7.00 to 8.00.

With `COc1ccc(S(=O)(=O)N(C[C@@H](O)[C@H](Cc2ccccc2)NC(=O)O[C@H]2CO[C@@H]3OCC[C@@H]32)OC2CCCC2)cc1` [Compound 116] the pIC50 [1, 3] was 6.00 to 6.30 and the pKi [2, 4] was under 7.00.

Compound `CC(C)Oc1cccc(S(=O)(=O)N(C[C@@H](O)[C@H](Cc2ccccc2)NC(=O)OC2CO[C@H]3OCC[C@@H]23)OC2CCCC2)c1` (stereo partly drawn) [Compound 142, (3R,3aS,6aR)hexahydrofuro[2,3-b]furan-3-yl N-((1S,2R)-1-benzyl-3-(cyclopentyloxy)[(3-isopropoxyphenyl)sulfonyl]amino-2-hydroxypropyl)carbamate] has a pIC50 [1, 5] of 6.30 to 7.00 and a pKi [2, 4] of over 9.00.

For `COC(=O)Nc1nc2cc(S(=O)(=O)N(C[C@@H](O)[C@H](Cc3ccccc3)NC(=O)[C@H](CC(N)=O)NC(=O)c3ccc4ccccc4n3)OC3CCCC3)ccc2[nH]1` [Compound 51, (2S)-4-Amino-4-oxo-2-[(2-quinolinylcarbonyl)amino]butanamido N-(1S,2R)-1-benzyl-3-[(cyclopentyloxy)(2-{(methoxycarbonyl)amino]-1H-benzimidazol-5-ylsulfonyl)amino]-2-hydroxypropylcarbamate], the pIC50 [1, 3] was 6.30 to 7.00 and the pKi [2, 4] was over 9.00.
